Read-outs that look alike come from different tables or passages of the source.
How the values were obtained:
CYP 1A1/2 = settings: human
CYP1A2 = type: cell-based, human; settings: 3-MC 5 μM for 24 h; 3D versus control 2D culture
Method: Then, total RNA was extracted from cell pellets using NucleoSpin RNA (Macherey-Nagel, Hoerdt, France) and the concentration of total RNA was measured with a NanoDrop ND-1000 (NanoDrop Technologies, Wilmington, USA). Total RNA was used for cDNA synthesis using the High Capacity cDNA reverse transcription kit (Applied Biosystems, Saint Aubin, France). Real-time PCR for all genes was performed using SYBR green technology with the Power SYBR Green PCR master mix (Applied Biosystems, Saint Aubin, France) and the CFX384 Real-Time System (Biorad) according to the manufacturer's recommendations. Primer sequences used are described in Tables 2 and 3 below.
The amplification curves were analyzed with the Biorad CFX Manager software using the comparative regression method. GAPDH was used for the normalization of expression data. The relative amount of measured mRNA in samples was determined using the 2-ΔΔCT method where ΔΔCT=(CTtarget-CTGAPDH)sample−(CTtarget-CTGAPDH)calibrator. Final results were expressed as the n-fold differences in target gene expression in tested samples when compared with the mean expression value of calibrator. Values are given for one experiment representative of at least three independent experiments.

[1] = test system: primary human hepatocytes (PHH); type: cell-based
Method: After 9 days, immuno-histochemical staining was performed as described hereinabove to detect the presence of phosphorylated H2AX (i.e., γH2Ax), a marker of DNA double-strand break, in the PHH.

[2] = test system: primary human hepatocytes (PHH)
Method: PHH either in control 2D culture (2D) or in 3D culture established according to the method of the invention in a collagen matrix (3D) were incubated with the indicated genotoxic drugs at the indicated concentrations (see Table 7) from the start of the culture. After 9 days, PHH were extracted from the collagen matrix by the action of purified collagenase. The cell pellets were resuspended in 0.5% low-melting point agarose and laid on conventional microscope slides covered with regular agarose. The electrophoresis migration was processed and after staining with propidium iodide, at least 100 images were acquired using a fluorescence microscope. The images were analyzed using the Comet Assay IV software. The extent of DNA damage in individual cells was evaluated by the percentage of tail DNA.

[3] = test system: MAPK MEK1/2-ERK1/2 pathway
[4] = test system: primary human hepatocytes (PHH); remark: listed apart in the source

With `Cc1ccc2cc3c(ccc4ccccc43)c3c2c1CC3` [3-MC, 3-methylcholanthrene] the “induction of CYP1A (EROD) activity” value (CYP 1A1/2) was “potentialization of 3-methylcholanthrene (3-MC) induction of CYP1A (EROD) activity was only observed in PHH in 3D culture” and the “CYP1A2 mRNA expression after 3-MC induction” value (CYP1A2) was “significantly increased CYP1A2 mRNA expression in PHH in 3D culture as compared to that in PHH in control 2D culture”.
In the case of `Nc1ccc(-c2ccccc2)cc1` [4-ABP, 4-aminobiphenyl], the “PHH with DNA damages (γH2Ax positive cells)” value ([1]; human) is reported as “about 50%”, the “levels of DNA damages in 3D culture, in words” value [2] is reported as “higher (about the double) and dose-dependent levels of DNA damages” and the “levels of DNA damages (percentage of tail DNA)” value ([2]; human) is reported as “about 3%”.
In the case of `N#CC(=C(/N)Sc1ccccc1N)/C(C#N)=C(\N)Sc1ccccc1N` [U0126], the “ERK1/2 activity (ERK1/2 phosphorylation)” value [3] is reported as “strong inhibition of ERK1/2 activity” and the “Ki67 / cyclin D1 positive cells after transient MEK/ERK inhibition” value [4] is reported as “No positive cells could be detected”.
aflatoxin B1 [AFB1] was tested, and the “PHH with DNA damages (γH2Ax positive cells)” value [1] was “about 35%”.
